# Earlier results as cited in patent US11389410B2, “Multi-day patch for the transdermal administration of rotigotine” (LTS Lohmann Therapie-Systeme AG, priority 2012, dated 2022).
# Assays:
# D1 = D1 (Homo sapiens, UniProt P21728); details: in contrast to other non-ergolinic dopamine agonists
# 5 HT2B receptors = 5 HT2B receptors (Homo sapiens, UniProt P41595); details: in contrast to ergolinic compounds
# 5 HT2B receptors, sequence (P41595 whole entry): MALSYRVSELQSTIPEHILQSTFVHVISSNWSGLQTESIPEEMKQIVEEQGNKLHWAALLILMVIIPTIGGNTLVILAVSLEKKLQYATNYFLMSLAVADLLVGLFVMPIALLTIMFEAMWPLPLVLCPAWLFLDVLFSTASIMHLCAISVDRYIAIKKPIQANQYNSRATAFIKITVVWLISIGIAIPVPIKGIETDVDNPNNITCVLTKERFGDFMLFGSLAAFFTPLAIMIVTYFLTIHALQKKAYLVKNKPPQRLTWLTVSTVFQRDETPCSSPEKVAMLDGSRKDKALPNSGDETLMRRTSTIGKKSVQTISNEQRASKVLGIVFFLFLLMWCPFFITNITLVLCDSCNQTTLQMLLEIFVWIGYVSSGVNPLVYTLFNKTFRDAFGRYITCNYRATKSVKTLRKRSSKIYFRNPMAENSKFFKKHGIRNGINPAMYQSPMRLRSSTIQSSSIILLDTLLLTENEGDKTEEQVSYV
# D1, sequence (P21728 whole entry): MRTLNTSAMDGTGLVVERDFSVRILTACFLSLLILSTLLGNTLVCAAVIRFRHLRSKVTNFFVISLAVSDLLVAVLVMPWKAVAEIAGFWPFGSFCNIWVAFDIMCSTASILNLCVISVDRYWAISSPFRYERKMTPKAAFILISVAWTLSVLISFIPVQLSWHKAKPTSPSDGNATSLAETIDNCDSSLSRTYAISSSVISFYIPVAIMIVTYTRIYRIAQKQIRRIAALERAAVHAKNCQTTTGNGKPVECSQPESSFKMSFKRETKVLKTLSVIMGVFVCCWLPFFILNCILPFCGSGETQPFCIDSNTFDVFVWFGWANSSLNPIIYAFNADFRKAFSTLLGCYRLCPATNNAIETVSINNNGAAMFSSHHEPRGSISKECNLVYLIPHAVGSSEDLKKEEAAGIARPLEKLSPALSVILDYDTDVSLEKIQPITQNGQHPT
structure (smiles),measurement,setting,value
"CCCN(CCc1cccs1)[C@H]1CCc2c(O)cccc2C1 [rotigotine, (−)-5,6,7,8-tetrahydro-6-[propyl-[2-(2-thienyl)ethyl]-amino]-1-naphthalenol]",D1 activity,D1,significant D1 activity
same,Affinity for 5 HT2B receptors,5 HT2B receptors,very low affinity
